Here are results for three molecules from patent EP0811378A1, “PREVENTIVE/REMEDY FOR INTERSTITIAL PNEUMONIA, INFLAMMATORY INTESTINAL DISEASES OR VASCULAR THICKENING CONTAINING QUINOLIZINONE COMPOUNDS, SALT THEREOF OR HYDRATES THEREFOR” (priority 1995, dated 1996).

SMILES strings stand for the structures. Where a name gives a salt, the structure may show the parent alone. Bounds are passed on as bounds.

As usually defined, the inhibition is the percentage by which the read-out fell short of the control.

The test system of data set [1] is bleomycin-induced pulmonary fibrosis. The data set can be described thus: Efficacy in a mouse model of bleomycin-induced pulmonary fibrosis. The conditions noted are these: 1 mg/kg orally twice a day, day 28. It is filed as in vivo, ICR mice. The procedure:
ICR mice (12 weeks old, male gender) were intravenously dosed with bleomycin (10 mg/kg) daily for 10 days. Test compound 1 was suspended in 0.5% methylcellulose solution and administered orally twice a day beginning the first day of bleomycin treatment till the day immediately preceding sacrifice. A control group received 0.5% methylcellulose solution in the like manner. Twenty-eight (28) days reckoning from administration of the initial dose of bleomycin, the mice were sacrificed, the lungs were isolated, and the lung hydroxyproline content was determined in accordance with Woessner's method. Histopathological specimens were also prepared at the same time and the degree of fibrotic change was evaluated after Azan-Mallory staining.

Data set [2] relates to silica-induced pulmonary fibrosis. The data set can be described thus: Efficacy in a mouse model of silica-induced pulmonary fibrosis. It is filed as in vivo, C57BL/6 mice. Particulars: for Hydroxyproline content: lungs isolated 16 days after silica, Mean ± SE. The procedure:
Using C57BL/6 mice (8 weeks old, male gender), the neck was incised under pentobarbital anesthesia and silica (2 mg/0.1 ml/animal) was administered intra-tracheally. A sham operated intact group received physiological saline in the same manner. The drug was orally administered daily beginning the day of silica treatment till the day immediately preceding sacrifice. Thus, test compound 1 and tranilast were respectively administered once after silica treatment and twice daily on the next and subsequent days, in morning and evening. In the sham operated and control groups, 0.5% methylcellulose was similarly administered. Sixteen (16) days after sensitization, the mice were bled to death under pentobarbital anesthesia and the lungs were isolated. The hydroxyproline content of the isolated lungs was assayed and used as an indicator of pulmonary fibrosis. The difference in mean value between the control group and the treatment group or the sham operated group was tested by one-way analysis of variance and Dunnett multiple-comparison test.

Data set [3] relates to acetic acid-induced colitis. The data set can be described thus: Efficacy in a rat model of acetic acid-induced colitis. Particulars: po, inhibition of lesion score, read-out: Degree of inhibition. In kind it is in vivo, SD rats. The procedure: Male SD rats (7-8 weeks old) were deprived of food for 24 hours and a suspension of test compound 2 in 0.5% methylcellulose solution was administered orally. Thirty (30) minutes later, 1 ml/rat of 4% acetic acid in saline was infused from the anus under ether anesthesia. An intact group received a saline infusion. The infusion was carried out over 20 seconds. Then, the animal was held in inverted upright position for 30 seconds, after which 2 ml of phosphate buffer solution was infused for washout. Twenty-four (24) hours later, the animal was sacrificed by carbon dioxide inhalation, the large intestine was isolated, and the local lesion was scored according to the following criteria. Lesion score 0. No lesion 1. Hyperemia without ulceration 2. Inflammation (hyperemia and thickening of the bowel wall) or ulceration without definite inflammation 3. Ulceration with inflammation at 1 site 4. Ulceration with inflammation at 2 or more sites 5. A large ulcer sized 1 cm or more 6-10. An ulcer sized 2 cm or more; 1 point added for each increment of 1 cm

Data set [4] can be described thus: Oral acute toxicity in rats. It is filed as in vivo.

On to `O=C(Nc1nnn[nH]1)c1cc(Oc2ccccc2)c2ccccn2c1=O` [Test compound 1, N-[5-(1H-tetrazolyl)]-1-phenoxy-4H-quinolizin-4-one-3-carboxamide sodium salt], for which the “Histopathological examination, degree of fibrotic change” value in data set [1] (Azan-Mallory staining) is “definite inhibition of pulmonary fibrosis”. For the same molecule, the inhibition at 1 mg/kg in data set [1] (Mus musculus, po, 672 h, inhibition of lung hydroxyproline content, read-out: Degree of inhibition) was 88.6%; in data set [2] (Mus musculus, po, 384 h, inhibition of lung hydroxyproline content, 1 mg/kg orally twice daily, day 16, read-out: Degree of inhibition), 88.7%. For the same molecule, in data set [2] (1 mg/kg orally twice daily, n=10), the Hydroxyproline content entry is on record as “**144.41±9.69 µg/lung”.
As to `O=C(Nc1nnn[nH]1)c1cc(Oc2ccccc2)c2ccccn2c1=O` [Test compound 2, N-[5-(1H-tetrazolyl)]-1-phenoxy-4H-quinolizin-4-one-3-carboxamide sodium salt monohydrate], the inhibition at 1 mg/kg in data set [3] (1 mg/kg orally) was determined as 38.3%. In addition, the inhibition at 10 mg/kg in data set [3] (10 mg/kg orally) is 68.1%. Moreover, the figures for the “oral acute toxicity LD50” value in data set [4] (female gender) and in data set [4] (male gender) were at least 5 g/kg/day and 4.5 g/kg/day, respectively.
Consider `COc1ccc(/C=C/C(=O)Nc2ccccc2C(=O)O)cc1OC` [Tranilast, reference compound], for which the Hydroxyproline content in data set [2] (100 mg/kg orally twice daily, n=9) stood at 224.66±18.44 µg/lung. The inhibition at 100 mg/kg in data set [2] (Mus musculus, po, 384 h, inhibition of lung hydroxyproline content, 100 mg/kg orally twice daily, day 16, read-out: Degree of inhibition) is 13.6%.
